According to US10398727B2, “Methods for the treatment and prevention of asbestos-related diseases” (University of Technology, Sydney, priority 2014, dated 2019):

Tested on: crocidolite-induced mesothelioma in MexTAg299 transgenic mice
Assay: Effect of CM on asbestos-induced mesothelioma in MexTAg299 mice (Example 2)
Settings: mouse, in vivo
Method: MexTAg299 transgenic mice are suitable for testing asbestos-induced mesothelioma with 100% incidence. MexTAg mice exposed to asbestos develop cancer that faithfully replicates key features of the pathogenesis of human mesothelioma.
Controls were normal saline (0.9%) or CM at 90 mg/kg (3 mice each).

## clinoptilolite [CM]
  Mesothelioma (number of mice): 0
